Data: patent US10131702B2, “Glucagon-GLP-1-GIP triple agonist compounds” (priority 2013, dated 2018)
Where two headings read alike, the source gives them in different places. Peptide text beside a SMILES is read from it.

T1: human GIP R (Homo sapiens, UniProt P48546)
T1 construct: expressed in transfected cells
T1 sequence (P48546 22-466): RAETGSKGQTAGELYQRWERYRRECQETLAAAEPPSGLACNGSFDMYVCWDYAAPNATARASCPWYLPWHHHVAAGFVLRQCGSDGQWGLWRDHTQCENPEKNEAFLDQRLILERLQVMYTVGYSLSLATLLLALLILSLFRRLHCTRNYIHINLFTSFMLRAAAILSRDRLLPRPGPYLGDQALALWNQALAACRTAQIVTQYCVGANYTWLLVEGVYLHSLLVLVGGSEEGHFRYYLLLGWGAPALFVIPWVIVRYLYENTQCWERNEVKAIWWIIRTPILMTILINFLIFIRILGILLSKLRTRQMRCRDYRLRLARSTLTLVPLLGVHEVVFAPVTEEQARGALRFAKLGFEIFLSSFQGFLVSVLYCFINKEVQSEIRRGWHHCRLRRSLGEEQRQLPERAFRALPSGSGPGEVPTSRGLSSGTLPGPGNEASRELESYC


Columns and labels:
[1] = target: T1, human GIP R; test: cAMP induction in HEK293 cells expressing human GIP R (AlphaScreen cAMP kit); format: cell-based; settings: read-out: GIP R (EC50 in nM)
Experimental: (§1) Briefly, HEK293 cells expressing the human GIP R, GLP-1 R or GCG R (stable cell lines generated through transfection of the cDNA for human GIP R, GLP-1 R or GCG R and selection of stable clones) were seeded at 30,000 cells/well in 96-well microtiter plates coated with 0.01% poly-L-lysine, and grown for 1 day in culture in 200 μl growth medium (DMEM, 10% FCS, Penicillin (100 IU/ml), Streptomycin (100 μg/ml)). On the day of analysis, growth medium was removed and the cells were washed once with 150 μl Tyrode's buffer (Tyrode's Salts (9.6 g/l), 10 mM HEPES, pH 7.4). […] The Assay buffer was removed and cells are lysed in 80 μl Lysis buffer (0.1% w/v BSA, 5 mM HEPES, 0.3% v/v Tween-20) per well. From each well 10 μl of lysed cells were transferred to a 384-well plate and mixed with 15 μl bead-mix (1 Unit/15 μl anti-cAMP Acceptor Beads, 1 Unit/15 μl Donor Beads, and 1 Unit/15 μl Biotinylated cAMP in Assay Buffer). The plates were mixed and incubated in the dark for an hour at room temperature before measuring using an Envision™ plate reader (Perkin-Elmer).
(§2) The resulting cAMP curves were plotted as absolute cAMP concentrations (nM) over log (test compound concentration) and analyzed using the curve fitting program XLfit.
(§3) Parameters calculated to describe both the potency as well as the agonistic activity of each test compound on the receptors were:
(§4) EC50, a concentration resulting in a half-maximal elevation of cAMP levels, reflecting the potency of the test compound.

[2] = in vivo; design: species or system C57BL/6J mice; settings: male, C57BL/6J, mouse, iv, 200 nmol/kg
Text: Pharmacokinetics of Selected Compounds in Mice Method C57BL/6J mice (males with a body weight of approximately 25 g) were given a single intravenous (i.v.) bolus of each peptide to be tested. […] Blood samples were drawn by sublingual bleeding. The dosing vehicle was a phosphate buffer containing mannitol (pH 7.5). At each sampling time point, samples from two mice were drawn, i.e. 16 mice were included for each compound. The mice were euthanized immediately after blood sampling by cervical dislocation. Plasma samples were analyzed after solid phase extraction (SPE) or precipitation by liquid chromatography mass spectrometry (LC-MS/MS). Mean plasma concentrations were used for calculation of the pharmacokinetic parameters using the non-compartmental approach in Phoenix WinNonlin 6.3. Plasma terminal elimination half-life (T½) was determined as […] where λz is the magnitude of the slope of the log linear regression of the log concentration versus time profile during the terminal phase.

[3] = target: T2, human GCG R (Homo sapiens, UniProt P47871); test: cAMP induction in HEK293 cells expressing human GCG R (AlphaScreen cAMP kit); format: cell-based; settings: Table 2; average EC50, cAMP, HEK293 cells expressing human GCG R; read-out: GCG R (EC50 in nM)
T2 construct: expressed in transfected cells
T2 sequence (P47871 26-477): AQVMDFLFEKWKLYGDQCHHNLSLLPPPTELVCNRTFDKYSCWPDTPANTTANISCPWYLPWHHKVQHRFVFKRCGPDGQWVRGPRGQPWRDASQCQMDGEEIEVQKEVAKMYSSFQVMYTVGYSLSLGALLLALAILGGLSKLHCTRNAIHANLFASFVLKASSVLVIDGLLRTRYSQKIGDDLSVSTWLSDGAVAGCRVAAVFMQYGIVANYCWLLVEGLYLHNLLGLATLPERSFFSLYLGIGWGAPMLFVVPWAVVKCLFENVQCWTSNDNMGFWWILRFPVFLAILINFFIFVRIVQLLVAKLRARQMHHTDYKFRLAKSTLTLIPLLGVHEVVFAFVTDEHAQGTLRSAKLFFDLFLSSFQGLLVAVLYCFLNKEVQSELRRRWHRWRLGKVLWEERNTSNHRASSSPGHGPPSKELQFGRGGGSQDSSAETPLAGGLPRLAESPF
Experimental: as §1, §2, §3, §4

[4] = target: T3, human GLP-1 R (Homo sapiens, UniProt P43220); test: cAMP induction in HEK293 cells expressing human GLP-1 R (AlphaScreen cAMP kit); format: cell-based; settings: average EC50, cAMP, HEK293 cells expressing human GLP-1 R, read-out: GLP1 R (EC50 in nM)
T3 construct: expressed in transfected cells
T3 sequence (P43220 24-463): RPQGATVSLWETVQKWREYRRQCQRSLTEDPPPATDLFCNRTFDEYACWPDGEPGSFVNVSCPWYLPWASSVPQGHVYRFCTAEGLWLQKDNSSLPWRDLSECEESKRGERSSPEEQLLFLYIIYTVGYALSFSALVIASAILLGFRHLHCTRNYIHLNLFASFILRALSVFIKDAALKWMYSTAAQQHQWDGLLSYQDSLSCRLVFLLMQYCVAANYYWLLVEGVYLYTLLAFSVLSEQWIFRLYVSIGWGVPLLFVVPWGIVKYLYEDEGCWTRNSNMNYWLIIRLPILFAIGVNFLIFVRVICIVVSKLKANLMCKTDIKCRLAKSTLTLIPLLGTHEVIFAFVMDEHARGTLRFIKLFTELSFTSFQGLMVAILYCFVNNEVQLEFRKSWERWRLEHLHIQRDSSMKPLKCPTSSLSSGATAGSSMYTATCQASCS

[5] = target: human GIP receptor (human) (UniProt P48546); test: cell-based or functional assay
[6] = target: human glucagon-like peptide 1 receptor (human) (UniProt P43220); test: cell-based or functional assay
Sequence of human glucagon-like peptide 1 receptor (human) (P43220 24-463): as above

[7] = target: human glucagon receptor (human) (UniProt P47871); test: cell-based or functional assay
Sequence of human glucagon receptor (human) (P47871 26-477): as the sequence (P47871 26-477) above

[8] = target: human GIP receptor (human) (UniProt P48546); test: cell-based or functional assay; remark: listed apart in the source
[9] = target: human glucagon-like peptide 1 receptor (human) (UniProt P43220); test: cell-based or functional assay; remark: listed apart in the source
[10] = Table 2b (most comprehensive data), average EC50, cAMP
[11] = Table 2b (most comprehensive data)

EC50 (cAMP induction) [5] [nM]	EC50 (cAMP induction) [6] [nM]	EC50 (cAMP induction) [7] [nM]	EC50 (cAMP induction) [8] [nM]	EC50 (cAMP induction) [9] [nM]	Molecule	EC50 ([1]; Table 2, average EC50, cAMP) [nM]	EC50 [1, 10] [nM]	half-life [2] [h]	EC50 [3] [nM]	EC50 ([4]; Table 2) [nM]	EC50 [4, 11] [nM]
					CCCCCCCCCCCCCCCC(=O)N[C@@H](CCC(=O)NCCCC[C@H](NC(=O)[C@H](CCCCN)NC(=O)[C@H](CCC(=O)O)NC(=O)[C@H](CC(C)C)NC(=O)[C@H](Cc1ccc(O)cc1)NC(=O)[C@@H](NC(=O)[C@H](CO)NC(=O)[C@H](Cc1ccc(O)cc1)NC(=O)[C@H](CC(=O)O)NC(=O)[C@H](CO)NC(=O)[C@@H](NC(=O)[C@H](Cc1ccccc1)NC(=O)[C@@H](NC(=O)CNC(=O)[C@H](CCC(N)=O)NC(=O)C(C)(C)NC(=O)[C@@H](N)Cc1ccc(O)cc1)[C@@H](C)O)[C@@H](C)O)[C@@H](C)CC)C(=O)N[C@@H](C)C(=O)N[C@@H](C)C(=O)N[C@@H](CCCCN)C(=O)N[C@@H](CCC(=O)O)C(=O)N[C@@H](Cc1ccccc1)C(=O)N[C@H](C(=O)N[C@@H](CCC(=O)O)C(=O)N[C@@H](Cc1c[nH]c2ccccc12)C(=O)N[C@@H](CC(C)C)C(=O)N[C@@H](CC(C)C)C(=O)N[C@@H](CO)C(=O)N[C@@H](C)C(=O)NCC(=O)N1CCC[C@H]1C(=O)N[C@@H](CO)C(=O)N[C@@H](CO)C(=O)NCC(=O)N[C@@H](C)C(=O)N1CCC[C@H]1C(=O)N1CCC[C@H]1C(=O)N1CCC[C@H]1C(=O)N[C@@H](CO)C(N)=O)C(C)C)C(=O)O [Compound 32] (HELM PEPTIDE1{Y.[Aib].Q.G.T.F.T.S.D.Y.S.I.Y.L.E.K.K.A.A.K.E.F.V.E.W.L.L.S.A.G.P.S.S.G.A.P.P.P.S.[am]}|PEPTIDE2{[CCCCCCCCCCCCCCCC(=O)[*:2]].[gGlu]}$PEPTIDE1,PEPTIDE2,17:R3-2:R2$$$V2.0)	0.044	0.015	4.1	0.15	0.015	0.15
					CCCCCCCCCCCCCCCC(=O)N[C@@H](CCC(=O)NCCCC[C@H](NC(=O)[C@H](CCC(=O)O)NC(=O)[C@H](CC(=O)O)NC(=O)[C@H](CC(C)C)NC(=O)[C@H](Cc1ccc(O)cc1)NC(=O)[C@@H](NC(=O)[C@H](CO)NC(=O)[C@H](Cc1ccc(O)cc1)NC(=O)[C@H](CC(=O)O)NC(=O)[C@H](CO)NC(=O)[C@@H](NC(=O)[C@H](Cc1ccccc1)NC(=O)[C@@H](NC(=O)CNC(=O)[C@H](CCC(N)=O)NC(=O)C(C)(C)NC(=O)[C@@H](N)Cc1ccc(O)cc1)[C@@H](C)O)[C@@H](C)O)[C@@H](C)CC)C(=O)N[C@@H](C)C(=O)N[C@@H](C)C(=O)N[C@@H](Cc1c[nH]cn1)C(=O)N[C@@H](CC(=O)O)C(=O)N[C@@H](Cc1ccccc1)C(=O)N[C@H](C(=O)N[C@@H](CCC(=O)O)C(=O)N[C@@H](Cc1c[nH]c2ccccc12)C(=O)N[C@@H](CC(C)C)C(=O)N[C@@H](CC(C)C)C(=O)N[C@@H](CO)C(=O)N[C@@H](C)C(N)=O)C(C)C)C(=O)O [Compound 28] (HELM PEPTIDE1{Y.[Aib].Q.G.T.F.T.S.D.Y.S.I.Y.L.D.E.K.A.A.H.D.F.V.E.W.L.L.S.A.[am]}|PEPTIDE2{[CCCCCCCCCCCCCCCC(=O)[*:2]].[gGlu]}$PEPTIDE1,PEPTIDE2,17:R3-2:R2$$$V2.0)	0.054	0.058	7.8	0.16	0.058	0.16
0.014	0.058	0.058	0.025	0.016	YXQGTFTSDYSIYLEKKAAHDFVEWLLSA (HELM PEPTIDE1{Y.[Aib].Q.G.T.F.T.S.D.Y.S.I.Y.L.E.K.K.A.A.H.D.F.V.E.W.L.L.S.A.[am]}$$$$V2.0; SMILES CC[C@H](C)[C@H](NC(=O)[C@H](CO)NC(=O)[C@H](Cc1ccc(O)cc1)NC(=O)[C@H](CC(=O)O)NC(=O)[C@H](CO)NC(=O)[C@@H](NC(=O)[C@H](Cc1ccccc1)NC(=O)[C@@H](NC(=O)CNC(=O)[C@H](CCC(N)=O)NC(=O)C(C)(C)NC(=O)[C@@H](N)Cc1ccc(O)cc1)[C@@H](C)O)[C@@H](C)O)C(=O)N[C@@H](Cc1ccc(O)cc1)C(=O)N[C@@H](CC(C)C)C(=O)N[C@@H](CCC(=O)O)C(=O)N[C@@H](CCCCN)C(=O)N[C@@H](CCCCN)C(=O)N[C@@H](C)C(=O)N[C@@H](C)C(=O)N[C@@H](Cc1c[nH]cn1)C(=O)N[C@@H](CC(=O)O)C(=O)N[C@@H](Cc1ccccc1)C(=O)N[C@H](C(=O)N[C@@H](CCC(=O)O)C(=O)N[C@@H](Cc1c[nH]c2ccccc12)C(=O)N[C@@H](CC(C)C)C(=O)N[C@@H](CC(C)C)C(=O)N[C@@H](CO)C(=O)N[C@@H](C)C(N)=O)C(C)C) [Compound 15]						
